Laboratory results reported in patent US20230321101A1, “METHODS AND USES OF HALOFUGINONE” (The Regents of the University of California, priority 2020, published 2023).
Entries after “also recorded” stand apart in the source; their conditions may differ.

Experiments:
[1] = tested on: cell surface heparan sulfate of Hep3B cells; assay: Heparan sulfate presentation by anti-HS mAb 10E4 staining of Hep3B cells; type: cell-based, human
SARS-CoV-2 spike RNA = assay: microbe, parasite or virus in culture; type: cell-based; conditions: Vero E6
[2] = mice, cited from earlier work
clinical = conditions: human, in vivo, po

## O=C(CC1NCCCC1O)Cn1cnc2cc(Br)c(Cl)cc2c1=O (racemic) [halofuginone]
[1]; listed as Halofuginone
  effect on heparan sulfate presentation (10E4 binding): dose-dependently reduced 10E4 binding; also recorded: dose-dependently reduced the presence of cell surface heparan sulfate
[1]; listed as halofuginone (MAZ1392)
  effect on heparan sulfate presentation (10E4 binding): reduced heparan sulfate presentation
SARS-CoV-2 spike RNA; Severe acute respiratory syndrome coronavirus 2, Vero C1008, read-out: IC50 of SARS-CoV-2 spike intracellular mRNA levels
  IC50: 34.9 nM
SARS-CoV-2 spike RNA
  reduction of SARS-CoV-2 spike intracellular mRNA levels: more than 20,000 fold
[2]; single intravenous injection
  exposure (area under the curve) in the lung compared to plasma: more than 87 fold
[2]
  tissue distribution: highest tissue concentrations in the lung and kidney
clinical; 0.5 mg
  Cmax: ~1.3 nM
clinical; 3.5 mg
  Cmax: ~7.4 nM
